In ChEMBL document CHEMBL1137785, “Discovery of geranylgeranyltransferase-I inhibitors with novel scaffolds by the means of quantitative structure-activity relationship modeling, virtual screening, and experimental validation” (J Med Chem, 2009):

Assay: Displacement of [3H]GGpp from GGTase1 expressed in Sf9 cells

Row | SMILES | pIC50 | also measured
1 | Cc1ccc([C@@H](CC(N)=O)NC(=O)c2ccc(-c3cc(-c4cccnc4)nn3-c3ccc(Cl)c(Cl)c3)s2)cc1 | 4.68 | 
2 | Cc1ccc(CN(CC(N)=O)C(=O)CCCCc2cc(-c3cccnc3)nn2-c2ccc(Cl)c(Cl)c2)cc1 | 4.53 | 
3 | CCCOc1ccc(-c2nn(-c3ccccc3)cc2/C=N/NC(=O)CNC(=O)c2cccc(Cl)c2)cc1 | 4.02 | 
4 | Cc1ccc(C(CC(N)=O)NC(=O)c2ccc(-c3cc(-c4cccnc4)nn3CCc3ccccc3)s2)cc1 (stereo not given) | 4.02 | 
5 | Cc1ccc(CCN(CC(N)=O)C(=O)CCCOc2cc(-c3cccnc3)nn2-c2ccc(Cl)c(Cl)c2)cc1 | 5.82 | 
6 | O=C(O)C[C@H](Cc1c[nH]c2ccccc12)NC(=O)Cn1c(=O)[nH]c2ccccc2c1=O |  | IC50: > 100 µM
7 | NC(=O)CN(CC1CCCCC1)C(=O)CCCOc1cc(-c2cccnc2)nn1-c1ccc(Cl)c(Cl)c1 | 5.84 | 
8 | Cc1ccc(C(CO)NC(=O)c2ccc(-c3cc(-c4cccnc4)nn3-c3ccc(Cl)c(Cl)c3)s2)cc1 (stereo not given) | 5.11 | 
9 | Cc1ccc(C(CC(N)=O)NC(=O)[C@H]2C[C@H](c3cc(-c4cccnc4)nn3-c3ccc(Cl)c(Cl)c3)C2(C)C)cc1 (stereo not given in full) | 5.94 | 
10 | CSCCCc1c(-c2cccnc2)nn(-c2ccc(Cl)c(Cl)c2)c1OCCCC(=O)NC(CC(N)=O)c1ccc(C)cc1 (stereo not given) | 7.55 | 
11 | Cc1ccc(C(CC(=O)O)NC(=O)c2ccc(-c3cc(-c4cccnc4)nn3-c3ccc(Cl)c(Cl)c3)s2)cc1 (stereo not given) | 5.73 | 
12 | Cc1ccc(C(CC(N)=O)NC(=O)C[C@H](O)COc2cc(-c3cccnc3)nn2-c2ccc(Cl)c(Cl)c2)cc1 (stereo not given in full) | 5.79 | 
13 | NC(=O)CC(NC(=O)CCCNc1cc(-c2cccnc2)nn1-c1ccc(Cl)c(Cl)c1)c1cccnc1 (stereo not given) | 6.32 | 
14 | Cc1ccc(C(CC(N)=O)NC(=O)CC[C@H](C)Nc2cc(-c3cccnc3)nn2-c2ccc(Cl)c(Cl)c2)cc1 (stereo not given in full) | 6.23 | 
15 | Cc1ccc(C(CC(N)=O)NC(=O)c2ccc(-c3cc(-c4cccnc4)nn3-c3ccc(Cl)c(Cl)c3)s2)cc1 (stereo not given) | 4.35 | 
16 | Cc1ccc(C(CC(N)=O)NC(=O)CCCN(CCN2CCOCC2)c2cc(-c3cccnc3)nn2-c2ccc(Cl)c(Cl)c2)cc1 (stereo not given) | 5.09 | 
17 | CCc1ccc(OCc2nnc(SCC(=O)Nc3ccc(C(N)=O)cc3)n2C(C)c2ccccc2)cc1 (stereo not given) |  | IC50 (read-out: IC50): 43 µM
18 | CCN(C(=O)CCCOc1cc(-c2cccnc2)nn1-c1ccc(Cl)c(Cl)c1)C(CC(N)=O)c1ccc(C)cc1 (stereo not given) | 6.27 | 
19 | NC(=O)CC(NC(=O)c1ccc(-c2cc(-c3cccnc3)nn2-c2ccc(Cl)c(Cl)c2)cc1)OCc1ccccc1 (stereo not given) | 5.63 | 
20 | Cc1ccc(C(NC(=O)c2ccc(-c3cc(-c4cccnc4)nn3-c3ccc(Cl)c(Cl)c3)s2)C(O)C(N)=O)cc1 (stereo not given) | 5.08 | 
21 | CCN(CCCC(=O)NC(CC(N)=O)c1ccc(C)cc1)c1cc(-c2cccnc2)nn1-c1ccc(Cl)c(Cl)c1 (stereo not given) | 5.7 | 
22 | Cc1ccc(C(CC(N)=O)NC(=O)CC(=O)Nc2cc(-c3cccnc3)nn2-c2ccc(Cl)c(Cl)c2)cc1 (stereo not given) | 5.58 | 
23 | Cc1ccc(C(CC(N)=O)NC(=O)C2CCCN(Cc3cc(-c4cccnc4)nn3-c3ccc(Cl)c(Cl)c3)C2)cc1 (stereo not given) | 4.3 | 
24 | O=C(O)CNC(=O)[C@H](Cc1c[nH]c2ccccc12)NC(=O)Cn1c(=O)[nH]c2ccccc2c1=O |  | IC50: > 100 µM
25 | NC(=O)CC(NC(=O)CCCOc1cc(-c2cccnc2)nn1-c1ccc(Cl)c(Cl)c1)c1ccc(-c2ccccc2)cc1 (stereo not given) | 6.21 | 

Row | SMILES | pIC50 | also measured
26 | Cc1ccc(C(CC(N)=O)NC(=O)CC(=O)CNc2cc(-c3cccnc3)nn2-c2ccc(Cl)c(Cl)c2)cc1 (stereo not given) | 5.23 | 
27 | Cc1ccc(C(CC(N)=O)NC(=O)CCCCOc2cc(-c3cccnc3)nn2-c2ccc(Cl)c(Cl)c2)cc1 (stereo not given) | 5.53 | 
28 | CCCC[C@H](NC(=O)c1ccc(NCNCCCCS)cc1-c1ccccc1)C(=O)O | 7.14 | 
29 | Cc1ccc(C(CC(N)=O)NC(=O)CC(=O)COc2cc(-c3cccnc3)nn2-c2ccc(Cl)c(Cl)c2)cc1 (stereo not given) | 4.86 | 
30 | Cc1ccc(C(NC(=O)CCCOc2cc(-c3cccnc3)nn2-c2ccc(Cl)c(Cl)c2)C(=N)N)cc1 (stereo not given) | 5.97 | 
31 | CCCC(C(=O)NCc1ccccc1)N(Cc1ccccc1Cl)C(=O)Cn1nnc(-c2ccc(Cl)cc2)n1 (stereo not given) | 4.43 | 
32 | Cc1ccc(C(CC(N)=O)NC(=O)COc2cc(-c3cccnc3)nn2-c2ccc(Cl)c(Cl)c2)cc1 (stereo not given) | 4.43 | 
33 | Cc1ccc(C(CC(N)=O)NC(=O)CCNCc2cc(-c3cccnc3)nn2-c2ccc(Cl)c(Cl)c2)cc1 (stereo not given) | 6.35 | 
34 | Cc1ccc(C(=O)N/C(=C/c2ccc(-c3ccc(Cl)c(Cl)c3)o2)C(=O)NCc2ccccc2)cc1 | 3.84 | IC50 (read-out: IC50): 8 µM
35 | CC(C)c1ccc(N(CC(=O)NCc2ccccc2)C(=O)Cn2nnc(-c3ccc(Cl)cc3)n2)cc1 | 4.19 | 
36 | Cc1ccc(-c2cc(NCNCCCCS)ccc2C(=O)N[C@@H](CCC(C)C)C(=O)O)cc1 | 6.68 | 
37 | COc1ccccc1-c1nnc(SCC(=O)Nc2ccc(C(N)=O)cc2)n1CCc1ccccc1 | 5.56 | 
38 | O=C(Cn1c(=O)n(Cc2c[nH]cn2)c(=O)c2ccccc21)N[C@@H](Cc1ccccc1)C(=O)O | 5.77 | 
39 | Cc1ccc(C(=O)N/C(=C\c2ccc(-c3ccc(Cl)c(Cl)c3)o2)C(=O)NCc2ccccc2)cc1 | 5.56 | 
40 | Cc1ccc(C(CC(N)=O)NC(=O)c2ccc(-c3cc(-c4cccnc4)nn3-c3ccc(Cl)c(Cl)c3)cc2)cc1 (stereo not given) | 5.82 | 
41 | NC(=O)CC(NC(=O)c1ccc(-c2cc(-c3cccnc3)nn2-c2ccc(Cl)c(Cl)c2)s1)OCc1ccccc1 (stereo not given) | 5.57 | 
42 | COCCN(CCC(=O)NC(CC(N)=O)c1ccc(C)cc1)Cc1cc(-c2cccnc2)nn1-c1ccc(Cl)c(Cl)c1 (stereo not given) | 7 | 
43 | Cc1ccc([C@@H](CC(N)=O)NC(=O)c2ccc(-c3cc(-c4cccnc4)nn3-c3ccc(Cl)c(Cl)c3)cc2)cc1 | 3.84 | 
44 | CCCn1c(COc2ccc(C(C)Cc3ccccc3)cc2)nnc1SCC(=O)Nc1ccc(C(N)=O)cc1 (stereo not given) | 4.19 | 
45 | COc1ccc(OCc2nnc(SCC(=O)Nc3ccc(C(N)=O)cc3)n2CCc2ccccc2)cc1 | 5.56 | 
46 | Cc1ccc(C(NC(N)=O)NC(=O)CCCOc2cc(-c3cccnc3)nn2-c2ccc(Cl)c(Cl)c2)cc1 (stereo not given) | 5.4 | 
47 | Cc1ccc(-c2nn(-c3ccccc3)cc2/C=N/NC(=O)C(=O)Nc2cc(Cl)ccc2Cl)cc1 | 4.43 | 
48 | CC[C@@H](C(=O)NCc1ccccc1)N(Cc1ccccc1Cl)C(=O)Cn1nnc(-c2ccc(C)cc2)n1 |  | IC50 (read-out: IC50): 35 µM
49 | Cc1ccc(C(CC(N)=O)NC(=O)CCCOc2c(CCCO)c(-c3cccnc3)nn2-c2ccc(Cl)c(Cl)c2)cc1 (stereo not given) | 7.17 | 
